Reference: patent US20240358693A1, “METHODS OF TREATING PAIN” (Aisa Pharma, Inc., priority 2023, published 2024)

Test system: participants with SSc-RP
Test: Average duration of weekly RP attacks (minutes)
Assay type: in vivo, human
From the text: The absolute change in average duration of weekly RP attacks from baseline to the end of each dosing period was and will be a secondary outcome variable. The sponsor-developed participant-informed diary was and will be used to record data. Average duration of weekly RP attacks is defined as the total duration of RP attacks divided by total number of RP attacks within the last 7 days of each dosing period. Total duration of RP attacks during the last 7 days of screening period divided by the total number of RP attacks will be used as baseline for the analysis of all periods. The variable will be calculated similar to frequency data as before.

[1] = Pooled Cilnidipine 10 mg and Cilnidipine 10 mg + Tadalafil 5 mg, Excluding Outliers, by Baseline RCS, subgroup 2, ITT Population - Part A
[2] = Pooled Cilnidipine 10 mg and Cilnidipine 10 mg + Tadalafil 5 mg, ITT Part A
[3] = Pooled Cilnidipine 10 mg and Cilnidipine 10 mg + Tadalafil 5 mg, by Baseline RCS, subgroup 1, ITT Population - Part A
[4] = Pooled Cilnidipine 10 mg and Cilnidipine 10 mg + Tadalafil 5 mg, by Baseline RCS, subgroup 2, ITT Population - Part A
[5] = Pooled Cilnidipine 20 mg and Cilnidipine 20 mg + Tadalafil 5 mg, n=4, Excluding Outliers, ITT Part A
[6] = Pooled Cilnidipine 20 mg and Cilnidipine 20 mg + Tadalafil 5 mg, n=4, ITT Part A
[7] = Pooled Cilnidipine 20 mg and Cilnidipine 20 mg + Tadalafil 5 mg, Baseline RCS subgroup 1 (unnamed), ITT Part A
[8] = Pooled Cilnidipine 20 mg and Cilnidipine 20 mg + Tadalafil 5 mg, Baseline RCS subgroup 2 (unnamed), ITT Part A
[9] = Pooled Cilnidipine 20 mg and Cilnidipine 20 mg + Tadalafil 5 mg, Excluding Outliers, Baseline RCS subgroup 1 (unnamed), ITT Part A
[10] = Pooled Cilnidipine 20 mg and Cilnidipine 20 mg + Tadalafil 5 mg, Excluding Outliers, Baseline RCS subgroup 2 (unnamed), ITT Part A
[11] = Pooled Cilnidipine 20 mg and Cilnidipine 20 mg + Tadalafil 5 mg, Excluding Outliers, ITT Population - Part A
[12] = Pooled Cilnidipine 20 mg and Cilnidipine 20 mg + Tadalafil 5 mg, Excluding Outliers, by Baseline RCS, subgroup 1, ITT Population - Part A

SMILES: COCCOC(=O)C1=C(C)NC(C)=C(C(=O)OC/C=C/c2ccccc2)C1c1cccc([N+](=O)[O-])c1 (stereo not shown) [Cilnidipine, cilnidipine]
- Average Duration of Weekly RP Attacks (All Attacks) Change from Baseline, Mean [1]: -20.38 min
- Average Duration of Weekly RP Attacks (All Attacks) Change from Baseline, Median [1]: -20.38 min
- Average Duration of Weekly RP Attacks (All Attacks) Percent Change from Baseline, Mean [1]: −37.36%
- Average Duration of Weekly RP Attacks (All Attacks) Percent Change from Baseline, Median [1]: −37.36%
- Average Duration of Weekly RP Attacks (All Attacks), Mean [1]: 34.17 min
- Average Duration of Weekly RP Attacks (All Attacks), Median [1]: 34.17 min
- Average Duration of Weekly RP Attacks (All Attacks) Change from Baseline, Mean [2]: -9.54 min
- Average Duration of Weekly RP Attacks (All Attacks) Change from Baseline, Median [2]: -8.48 min
- Average Duration of Weekly RP Attacks (All Attacks) Percent Change from Baseline, Mean [2]: −19.10%
- Average Duration of Weekly RP Attacks (All Attacks) Percent Change from Baseline, Median [2]: −21.20%
- Average Duration of Weekly RP Attacks (All Attacks), Mean [2]: 27.90 min
- Average Duration of Weekly RP Attacks (All Attacks), Median [2]: 31.52 min
- Average Duration of Weekly RP Attacks (All Attacks) Change from Baseline, Mean [3]: -4.13 min
- Average Duration of Weekly RP Attacks (All Attacks) Change from Baseline, Median [3]: -4.13 min
- Average Duration of Weekly RP Attacks (All Attacks) Percent Change from Baseline, Mean [3]: −9.97%
- Average Duration of Weekly RP Attacks (All Attacks) Percent Change from Baseline, Median [3]: −9.97%
- Average Duration of Weekly RP Attacks (All Attacks), Mean [3]: 24.76 min
- Average Duration of Weekly RP Attacks (All Attacks), Median [3]: 24.76 min
- Average Duration of Weekly RP Attacks (All Attacks) Change from Baseline, Mean [4]: -20.38 min
- Average Duration of Weekly RP Attacks (All Attacks) Change from Baseline, Median [4]: -20.38 min
- Average Duration of Weekly RP Attacks (All Attacks) Percent Change from Baseline, Mean [4]: −37.36%
- Average Duration of Weekly RP Attacks (All Attacks) Percent Change from Baseline, Median [4]: −37.36%
- Average Duration of Weekly RP Attacks (All Attacks), Mean [4]: 34.17 min
- Average Duration of Weekly RP Attacks (All Attacks), Median [4]: 34.17 min
- Average Duration of Weekly Symptomatic RP Attacks, Change from Baseline, Mean [5]: -7.51 min
- Average Duration of Weekly Symptomatic RP Attacks, Change from Baseline, Median [5]: -3.55 min
- Average Duration of Weekly Symptomatic RP Attacks, Mean [5]: 27.98 min
- Average Duration of Weekly Symptomatic RP Attacks, Median [5]: 22.96 min
- Average Duration of Weekly Symptomatic RP Attacks, Percent Change from Baseline, Mean [5]: −16.40%
- Average Duration of Weekly Symptomatic RP Attacks, Percent Change from Baseline, Median [5]: −7.30%
- Average Duration of Weekly Symptomatic RP Attacks, Change from Baseline, Mean [6]: -7.51 min
- Average Duration of Weekly Symptomatic RP Attacks, Change from Baseline, Median [6]: -3.55 min
- Average Duration of Weekly Symptomatic RP Attacks, Mean [6]: 27.98 min
- Average Duration of Weekly Symptomatic RP Attacks, Median [6]: 22.96 min
- Average Duration of Weekly Symptomatic RP Attacks, Percent Change from Baseline, Mean [6]: −16.40%
- Average Duration of Weekly Symptomatic RP Attacks, Percent Change from Baseline, Median [6]: −7.30%
- Average Duration of Weekly Symptomatic RP Attacks, Change from Baseline, Mean [7]: -1.01 min
- Average Duration of Weekly Symptomatic RP Attacks, Change from Baseline, Median [7]: 3.24 min
- Average Duration of Weekly Symptomatic RP Attacks, Mean [7]: 16.31 min
- Average Duration of Weekly Symptomatic RP Attacks, Median [7]: 15.46 min
- Average Duration of Weekly Symptomatic RP Attacks, Percent Change from Baseline, Mean [7]: −11.86%
- Average Duration of Weekly Symptomatic RP Attacks, Percent Change from Baseline, Median [7]: 15.41%
- Average Duration of Weekly Symptomatic RP Attacks, Change from Baseline, Mean [8]: -27.00 min
- Average Duration of Weekly Symptomatic RP Attacks, Change from Baseline, Median [8]: -27.00 min
- Average Duration of Weekly Symptomatic RP Attacks, Mean [8]: 63.00 min
- Average Duration of Weekly Symptomatic RP Attacks, Median [8]: 63.00 min
- Average Duration of Weekly Symptomatic RP Attacks, Percent Change from Baseline, Mean [8]: −30.00%
- Average Duration of Weekly Symptomatic RP Attacks, Percent Change from Baseline, Median [8]: −30.00%
- Average Duration of Weekly Symptomatic RP Attacks, Change from Baseline, Mean [9]: -1.01 min
- Average Duration of Weekly Symptomatic RP Attacks, Change from Baseline, Median [9]: 3.24 min
- Average Duration of Weekly Symptomatic RP Attacks, Mean [9]: 16.31 min
- Average Duration of Weekly Symptomatic RP Attacks, Median [9]: 15.46 min
- Average Duration of Weekly Symptomatic RP Attacks, Percent Change from Baseline, Mean [9]: −11.86%
- Average Duration of Weekly Symptomatic RP Attacks, Percent Change from Baseline, Median [9]: 15.41%
- Average Duration of Weekly Symptomatic RP Attacks, Change from Baseline, Mean [10]: -27.00 min
- Average Duration of Weekly Symptomatic RP Attacks, Change from Baseline, Median [10]: -27.00 min
- Average Duration of Weekly Symptomatic RP Attacks, Mean [10]: 63.00 min
- Average Duration of Weekly Symptomatic RP Attacks, Median [10]: 63.00 min
- Average Duration of Weekly Symptomatic RP Attacks, Percent Change from Baseline, Mean [10]: −30.00%
- Average Duration of Weekly Symptomatic RP Attacks, Percent Change from Baseline, Median [10]: −30.00%
- Average Duration of Weekly RP Attacks (All Attacks) Change from Baseline, Mean [11]: -4.77 min
- Average Duration of Weekly RP Attacks (All Attacks) Change from Baseline, Median [11]: -2.73 min
- Average Duration of Weekly RP Attacks (All Attacks) Percent Change from Baseline, Mean [11]: −13.86%
- Average Duration of Weekly RP Attacks (All Attacks) Percent Change from Baseline, Median [11]: −2.74%
- Average Duration of Weekly RP Attacks (All Attacks), Mean [11]: 27.61 min
- Average Duration of Weekly RP Attacks (All Attacks), Median [11]: 22.36 min
- Average Duration of Weekly RP Attacks (All Attacks) Change from Baseline, Mean [12]: 0.00 min
- Average Duration of Weekly RP Attacks (All Attacks) Change from Baseline, Median [12]: 2.16 min
- Average Duration of Weekly RP Attacks (All Attacks) Percent Change from Baseline, Mean [12]: −10.70%
- Average Duration of Weekly RP Attacks (All Attacks) Percent Change from Baseline, Median [12]: 17.86%
- Average Duration of Weekly RP Attacks (All Attacks), Mean [12]: 15.91 min
- Average Duration of Weekly RP Attacks (All Attacks), Median [12]: 14.27 min
- Average Duration of Weekly RP Attacks (All Attacks) Change from Baseline, Mean (Pooled Cilnidipine 20 mg and Cilnidipine 20 mg + Tadalafil 5 mg, Excluding Outliers, by Baseline RCS, subgroup 2, ITT Population - Part A): -19.09 min
